From patent US8524754B2, “Polymorphic, crystalline and mesophase forms of sodium 2-(5-bromo-4-(4-cyclopropylnaphthalen-1-yl)-4H-1,2,4-triazol-3-ylthio) acetate, and uses thereof” (Ardea Biosciences, Inc., priority 2010, dated 2013) come the findings set out here.

The nature of the series: Solid-state stability of packaged Form A / crystalline polymorphs under accelerated and long term conditions. It is filed as physicochemical. To be noted: for degradation of packaged Form A: double LDPE bag inside heat sealed anhydrous foil bag in HDPE container. Here is the method:
Form A of sodium 2-(5-bromo-4-(4-cyclopropylnaphthalen-1-yl)-4H-1,2,4-triazol-3-ylthio)acetate was tested under various conditions to determine thermodynamic stability. […] Packaging was in a double low density polyethylene plastic bag inside a heat sealed anhydrous foil bag in an HDPE container.
The improved stability of the crystalline polymorphs of sodium 2-(5-bromo-4-(4-cyclopropylnaphthalen-1-yl)-4H-1,2,4-triazol-3-ylthio)acetate provides for the preparation of pharmaceutical dosage forms displaying reduced variability in the dosage present in a given dosage form, reduction in the presence of impurities in the final pharmaceutical product, and an improved shelf life of formulated dosage forms when compared to the pharmaceutical dosage form prepared with the amorphous solid state form of the carboxylic acid.

Molecules are shown by their SMILES.

Consider `O=C([O-])CSc1nnc(Br)n1-c1ccc(C2CC2)c2ccccc12.[Na+]` [Form A, sodium 2-(5-bromo-4-(4-cyclopropylnaphthalen-1-yl)-4H-1,2,4-triazol-3-ylthio)acetate], for which the “degradation of packaged Form A” value runs as follows: (accelerated conditions (40° C.-75% RH), 6 months) “No degradation”; (long term conditions (25° C.-60% RH), 12 months) “no degradation”. Further, the “stability in comparison to the amorphous solid state form of the carboxylic acid (free acid)” value (solid state) was “improvement over the solid state amorphous free acid”.
